According to patent US9388215B2, “Compositions and methods of using islet neogenesis peptides and analogs thereof” (SHENZHEN HIGHTIDE BIOPHARMACEUTICAL, LTD., priority 2013, dated 2016):
Ends that are not written are not given here.

Legend:
[1] = Peptide stability in rat plasma; type: in vitro ADME; conditions: 100 μg/mL, 37° C.; FIG. 12, 13
Description: (§1) The stability of peptides was also tested in rat, mouse and human plasma. Briefly, a certain amount of peptides and eucatropine powder (positive control) was accurately weighed. Test compounds were dissolved in 50% methanol-water solution and diluted to 20 mg/mL, and eucatropine was dissolved in dimethylsulfoxide (DMSO) and diluted to 10 mM, as a stock solution. Eucatropine stock solution was diluted to 0.2 mM with DMSO as a working solution. A stop reagent was prepared containing 200 ng/mL midazolam and tolbutamide in acetonitrile. A volume of 300 μL of stop solution was added to each well of a 96-well deep-well plate placed on ice beforehand.
(§2) For the stability studies, peptides and eucatropine were spiked into plasma respectively, mixed well, and then 100 μL of each mixture solution was transferred into the pre-cooled stop reagent as 0 time point sample. The remaining mixtures were incubated in a 37° C. water bath with shaking at 100 rpm (n=2). The final incubation concentration was 1 μM for eucatropine and 100 μg/mL for all test compounds.
(§3) At desired time points, 100 μL of incubation mixture was transferred to the stop reagent to precipitate proteins. Samples were vortexed and centrifuged at RCF 5000×g for 10 minutes, and supernatant was transferred to a test plate. The samples were analyzed by LC-MS/MS.
(§4) Slope was calculated by plotting the natural logarithm of the percentage of remaining amount of test compounds and time, and T1/2 was calculated in accordance with the following formula.
For stability in rat plasma, the incubation time was 0, 15, 30, 60 and 120 min for Peptide 1 and eucatropine, and 0, 15, 30, 60, 120, and 240 min for Peptide 12, Peptide 16, Peptide 29 and Peptide 31.
In another stability study in rat plasma, the incubation time was 0, 30, 60 120 and 240 min for Peptide 2, Peptide 52, Peptide 64 and eucatropine.

[2] = Peptide stability in mouse plasma; type: in vitro ADME; conditions: 100 μg/mL, 37° C.; FIG. 3, 5, 14
Description: as §1, with “in” for “in rat,”
as §2, with “[…]” for “1 μM”
as §3, §4
For stability in mouse plasma, the incubation time was 0, 5, 15, 30 and 60 min for Peptide 1 and eucatropine; 0, 15, 30, 60, 120, 240 and 480 min for Peptide 12, Peptide 16 and Peptide 29.
In another stability study in mouse plasma, the incubation time was 0, 30, 60 and 120 min for Peptide 2 and eucatropine; 0, 30, 60, 120, 240 and 960 min for Peptide 52 and Peptide 54.
as §1, §2
For stability in mouse plasma, the incubation time was 0, 15, 30, 60 and 120 min for Peptide 1 and eucatropine; 0, 15, 30, 60, 120, and 240 min for Peptide 31.

pancreatic islets = assay: Glucose-stimulated insulin secretion (GSIS) of isolated islets; type: cell-based, rat; conditions: 12.0 mM glucose; 10 μg/mL peptide or 100 nM GLP-1; 60 min; FIG. 8
Description: The pancreases were procured from male adult Sprague-Dawley (SD) rats. After 7 days acclimation, the animals were sacrificed by cervical dislocation and the entire pancreas was removed and digested with collagenase to isolate islets. After digestion, islets were maintained at 37° C. in RPMI 1640 (Carlsbad Calif., USA) pH 7.4, containing 10% (v/v) fetal calf serum, 1% penicillin/streptomycin, and 10 mM glucose in a humid atmosphere (5% CO2/95% O2), without the addition of any compound (control), or with the addition of 100 nM glucagon like peptide-1 (GLP-1); or 10 μg/mL Peptide 1, Peptide 12, or Peptide 16, as summarized in Table 4 below. Cultured islets were rinsed in Krebs-Ringer bicarbonate buffer (KRB), pH 7.4, previously gassed with a mixture of CO2/O2 (5/95%), and pre-incubated in 1.0 ml of KRB containing 0.5% (w/v) BSA and 1.5 mM glucose at 37° C. for 45 min. After this period, groups of 5 islets were incubated in 0.6 ml KRB with the addition of 1.5 or 12.0 mM glucose, with or without the addition of peptides for 60 min. At the end of the incubation period, aliquots of the medium were collected for insulin quantitation.

normal C57BL/6J mice = assay: Induction of small β-cell clusters in normal C57BL/6J mice (islet size distribution); type: in vivo, mouse; conditions: normal mice
Description: After a 1-week acclimation, C57BL/6J female mice were randomly divided into 4 groups. The two control groups received either 10 mL/kg sterile normal saline (n=4) or scrambled peptide (Peptide 3, 25 mg/kg) (n=5) via subcutaneous injection for 10 days. The other two groups received INGAP-PP (Peptide 1) or INGAP-PP analog Peptide 7 at a dose of 25 mg/kg per day respectively (n=7 per group) for the same period. Body weight and 6 hour fasting blood glucose were measured before treatment and after the last dosing of treatment. Plasma and pancreatic insulin were also measured at the end of the study. On day 11, the pancreas was removed from each animal, cleared of fat and lymph nodes, weighed, and fixed in 10% neutral buffered formalin (NBF) for no longer than 24 hours before processing for morphometric analysis.
Immunohistochemistry analysis was used to determine pancreatic islet size distribution.

| Substance | stability in rat plasma [1] | stability in mouse plasma [2] | further results |
| --- | --- | --- | --- |
| Ac-IGLHDPTQGTEPAGE-NH2 [Peptide 62, Ac-IGLHDPTQGTEPAGE-NH2] | exhibited good stability in rat plasma and were significantly more stable than HIP | – | – |
| Ac-IGLHDPTQGTEPAGE-OH [Peptide 52, Ac-IGLHDPTQGTEPAGE-OH] | exhibited good stability in rat plasma and were significantly more stable than HIP | exhibited good stability in mouse plasma and were significantly more stable than HIP | – |
| Ac-IGLHDPTQGTEPNGE-OH [Peptide 54, Ac-IGLHDPTQGTEPNGE-OH] | – | exhibited good stability in mouse plasma and were significantly more stable than HIP | – |
| GLP-1: Glucagon like peptide-1, 100 nM, included as a positive control in GSIS (HAEGTFTSDVSSYLEGQAAKEFIAWLVKGR; ends and bridges not checked; UniProt P01275 98-127, looked up) [reference compound] | – | – | glucose-stimulated insulin release vs islets without peptide (pancreatic islets): released significantly more insulin than those cultured without the addition of peptides |
| H-SHPNGSGTIGLHDPL-OH [Peptide 3, H-SHPNGSGTIGLHDPL-OH] | – | – | effect on body weight, blood glucose, plasma insulin, pancreas insulin, pancreas weight (normal C57BL/6J mice; 25 mg/kg per day sc for 10 days, compared to saline group): did not affect body weight, blood glucose, plasma insulin, pancreas insulin, or pancreas weight; all parameters measured, scrambled peptide versus normal saline (normal C57BL/6J mice; 25 mg/kg, 10 days): no difference |
